Test results as given in US6689803B2, “Compositions and methods for treating surgical adhesions” (Angiotech Pharmaceuticals, Inc., priority 1996, dated 2004).

Experiments:
neutrophils = test: Neutrophil degranulation assay (myeloperoxidase, lysozyme release); type: cell-based, human
Method: Neutrophil viability and purity was always greater than 90%.
One and a half milliliter Eppendorf tubes containing either 25 mg of CPPD or 1 mg of zymosan were preheated to 37° C. 0.5 ml of cells at 37° C. were added followed by vigorous shaking to initiate the reactions. At appropriate times, tubes were centrifuged at 10,000 g for 10 seconds and 0.4 ml of supernatant was stored at −20° C. for later assay.
Lysozyme was measured by the decrease in absorbance at 450 nm of a Micrococcus lysodeikticus suspension. Briefly, Micrococcus lysodeikticus was suspended at 0.1 mg/ml in 65 mM potassium phosphate buffer, pH 6.2 and the absorbance at 450 nm was adjusted to 0.7 units by dilution. The crystal (or zymosan) and cell supernatant (100 μl) was added to 2.5 ml of the Micrococcus suspension and the decrease in absorbance was monitored. Lysozyme standards (chicken egg white) in the 0 to 2000 units/ml range were prepared and a calibration graph of lysozyme concentration against the rate of decrease in the absorbance at 450 nm was obtained.
Myeloperoxidase (MPO) activity was measured by the increase in absorbance at 450 nm that accompanies the oxidation of dianisidine. 7.8 mg of dianisidine was dissolved in 100 ml of 0.1 M citrate buffer, pH 5.5 at […] by sonication. To a 1 ml cuvette, 0.89 ml of the dianisidine solution was added, followed by 50 μl of 1% Triton x 100, 10 μl of a 0.05% hydrogen peroxide in water solution and 50 μl of crystal-cell supernatant. MPO activity was determined from the change in absorbance (450 nm) per minute, Delta Å 450, using the following equation: […]

[1] = Paclitaxel solubility in permeation enhancers; type: physicochemical; conditions: 37° C.
Method: The following permeation enhancers were examined: Transcutol®, ethanol, propylene glycol, isopropyl myristate, oleic acid and Transcutol:isopropyl myristate (9:1 v:v). […] A sample of 0.5 ml of the fluid from each vial was centrifuged at 37° C. and 13000 rpm for 2 minutes. Aliquots (0.1 ml) of supernatant from the centrifuge tubes were transferred to volumetric flasks and diluted with methanol. Paclitaxel content was assessed by high pressure liquid chromatography (HPLC).

**Q.** What does the source list for `CC(=O)O[C@H]1C(=O)[C@@]2(C)[C@H]([C@H](OC(=O)c3ccccc3)[C@]3(O)C[C@H](OC(=O)[C@H](O)[C@@H](NC(=O)c4ccccc4)c4ccccc4)C(C)=C1C3(C)C)[C@]1(OC(C)=O)CO[C@@H]1C[C@@H]2O` [paclitaxel]?
**A.** lysozyme release (neutrophils; 28 μM, plasma opsonized CPPD): reduced lysozyme release; inhibition at 28 µM (neutrophils; Homo sapiens, Neutrophil, 28 μM, opsonized zymosan, after 9 minutes incubation, read-out: inhibition of MPO release): 50%; myeloperoxidase release (neutrophils; plasma opsonized CPPD (FIG. 5A: 28 μM)): significantly inhibited CPPD-induced myeloperoxidase release at all times; Paclitaxel concentration at saturation, Average ([1]; Ethanol): 68.91 mg/mL; Paclitaxel concentration at saturation, Average ([1]; Isopropyl myristate): 0.43 mg/mL; Paclitaxel concentration at saturation, Average ([1]; Oleic acid): 0.31 mg/mL; Paclitaxel concentration at saturation, Average ([1]; Propylene glycol): 21.56 mg/mL; Paclitaxel concentration at saturation, Average ([1]; Transcutol): 346.9 mg/mL; Paclitaxel concentration at saturation, Average ([1]; Transcutol, listed as Paclitaxel): 346.85 mg/mL; Paclitaxel concentration at saturation, Average ([1]; Transcutol:isopropyl myristate (9:1 v:v)): 353.9 mg/mL; Paclitaxel concentration at saturation, Average ([1]; Transcutol:isopropyl myristate (9:1 v:v), listed as Paclitaxel): 353.93 mg/mL
